Reference: paper PMC6812009, “Covalent Aurora A regulation by the metabolic integrator coenzyme A” (Redox Biology, 2019)
Changes are numbered by the printed parent chain.

Columns and labels:
mouse oocytes = assay: Microinjection of mouse oocytes, spindle formation and chromosome alignment; assay type: cell-based; details: injected with 3 mM compound, 17 h after GV release
Protocol: Mouse oocytes arrested at the GV stage were injected with different concentrations of CoA (0.15–5 mM). Since the commercial preparation of CoA used for microinjection contained 3 mol of lithium ions per mole of CoA, control oocytes were injected with an equivalent amount of LiCl. In a separate study, oocytes were injected with 3 mM CoA, ADP, AMP, 3′-5′-ADP and pantetheine. To examine the effect of injected compounds on spindle formation, oocytes were fixed 17 h after GV release and stained for alpha-tubulin (green) and DNA (blue).

Aurora A (active) = biological target: T1, Aurora A (active) (Homo sapiens, UniProt O14965); assay: In vitro Aurora A kinase assay (γ33P-ATP incorporation into myelin basic protein); assay type: biochemical; details: 5 μM ATP, absence of DTT; read-out: IC50, Aurora A kinase activity
T1 construct: Bacterially expressed full-length His-Aurora A was used to determine the IC50 value for CoA; made in house; host or cells: E. coli BL21 (DE3) pLysS
T1 sequence (O14965 1-403): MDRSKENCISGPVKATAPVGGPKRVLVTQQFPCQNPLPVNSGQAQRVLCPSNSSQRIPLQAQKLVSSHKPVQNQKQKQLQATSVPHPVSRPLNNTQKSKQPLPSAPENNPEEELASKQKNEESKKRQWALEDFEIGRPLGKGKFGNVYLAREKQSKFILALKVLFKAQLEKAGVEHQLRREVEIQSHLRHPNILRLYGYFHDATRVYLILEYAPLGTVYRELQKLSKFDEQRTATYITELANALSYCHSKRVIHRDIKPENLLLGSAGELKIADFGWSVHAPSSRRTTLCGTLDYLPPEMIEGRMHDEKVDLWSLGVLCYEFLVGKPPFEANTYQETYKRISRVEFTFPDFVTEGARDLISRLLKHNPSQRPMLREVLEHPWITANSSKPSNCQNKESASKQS
Protocol: Profiling of 117 protein kinases with CoA, dpCoA and ADP was carried out at the International Centre for Protein Kinase Profiling at the University of Dundee. Each compound was tested in vitro, in duplicate, at 100 μM final concentration using recombinant kinases, model substrates and optimal concentrations of ATP. Bacterially expressed full-length His-Aurora A was used to determine the IC50 value for CoA (in the presence or absence of DTT), dpCoA, ADP and desulfo-CoA. The assay was performed in the presence of 5 μM competing ATP. To examine whether the inhibitory effect of CoA on Aurora A is modulated by TPX2, IC50 values for CoA were also generated in the presence and absence of 1 μg TPX2 (residues 1–43) fragment.
Aurora A kinase activity was assayed by measuring incorporation of γ^33P-ATP into myelin basic protein (Sigma). Purified recombinant protein (100 ng) was incubated at room temperature for 30 min in a total volume of 15 μl containing 50 mM HEPES pH 7.5, 10 mM MgCl2, 1 mM EGTA, 0.05% Brij-35, 0.5 mg/ml myelin basic protein, and 5 μM γ^33P-ATP (100–10,000 dpm/pmol). The reaction was stopped by spotting the reaction mixture onto squares of P81 phosphocellulose ion exchange paper (Whatmann), which were then immersed in 1.5% (v/v) phosphoric acid. After washing twice in 1% phosphoric acid followed by two washes in distilled water, the papers were air dried and radioactivity was counted by a scintillation counter and recorded by Quantasmart version 2.03.

[1] = biological target: T2, Aurora A (active), T288 phosphorylated (Homo sapiens, UniProt O14965); assay: Lanthascreen Eu Kinase FRET binding assay; details: T288 phosphorylated Aurora A; read-out: Aurora A (active) IC50 (μM), binding assay
T2 construct: For enzyme and DSF assays, full-length human Aurora A and Aurora B and 1–43 TPX2 were produced; made in house; host or cells: E. coli
T2 sequence (O14965 1-403): T1 sequence (O14965 1-403)
Protocol: (§1) A Lanthascreen Eu Kinase FRET Binding Assay (Invitrogen) was employed to determine IC50 values for the interaction of Aurora A with CoA, dpCoA, ATP, and ADP. […] Recombinant Aurora A was incubated with Europium-conjugated anti-histidine tag antibody and an Alexa Fluor 647-labelled tracer, which binds to the ATP binding pocket of Aurora A. The close proximity of the anti-histidine (epitope-tag) antibody and the tracer results in a high degree of FRET (fluorescence resonance energy transfer) from the europium donor fluorophore to the Alexa Fluor 647 acceptor fluorophore. ATP-competitive inhibitors, such as CoA, displace the tracer from the active site, causing a loss of FRET signal. Assay set-up was performed as described by the manufacturer. Briefly, the time-resolved fluorescence resonance energy transfer assay (TR-FRET) was performed in black, low volume 384 well plates (Corning). Each well contained 5 nM kinase, 2 nM Eu-anti-His antibody and 10 nM kinase tracer 236 in kinase buffer A (50 mM Hepes pH 7.5, 10 mM MgCl2, 1 mM […], 0.01% (v/v) Brij-35), varying amounts of CoA, dpCoA, ATP, and ADP. The reaction mix was incubated for 1h at room temperature. The signal was measured at 665/620 nm emission ratio using BMG LABTECH plate reader (PHERAstar). All assays were performed using duplicates. The 11-point response curves were generated using GraphPad Prism software from the inhibition data generated.

[2] = biological target: T3, Aurora A (inactive), unphosphorylated (PP1-treated) (Homo sapiens, UniProt O14965); assay: Lanthascreen Eu Kinase FRET binding assay
T3 construct: For enzyme and DSF assays, full-length human Aurora A and Aurora B and 1–43 TPX2 were produced; made in house; host or cells: E. coli
T3 sequence (O14965 1-403): T1 sequence (O14965 1-403)
Protocol: as §1

C290A Aurora A = biological target: T4, C290A Aurora A (Homo sapiens, UniProt O14965, C290A); assay: Thermal shift assay (differential scanning fluorimetry); assay type: binding; details: 5 mM ATP or 5 mM CoA
T4 construct: For enzyme and DSF assays, full-length human Aurora A and Aurora B and 1–43 TPX2 were produced; made in house; host or cells: E. coli BL21 (DE3) pLysS
T4 sequence (O14965 whole entry C290A): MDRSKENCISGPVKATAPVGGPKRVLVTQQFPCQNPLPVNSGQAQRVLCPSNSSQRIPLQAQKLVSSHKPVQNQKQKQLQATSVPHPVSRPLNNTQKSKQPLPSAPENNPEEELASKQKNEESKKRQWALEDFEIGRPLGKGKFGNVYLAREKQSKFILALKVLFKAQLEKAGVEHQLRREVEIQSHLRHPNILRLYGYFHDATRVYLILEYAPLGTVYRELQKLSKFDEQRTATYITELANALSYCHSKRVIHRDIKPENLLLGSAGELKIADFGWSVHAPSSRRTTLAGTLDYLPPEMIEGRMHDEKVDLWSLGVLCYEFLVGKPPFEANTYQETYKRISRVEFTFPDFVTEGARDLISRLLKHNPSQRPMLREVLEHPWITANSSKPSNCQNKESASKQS
Protocol: (§2) Asp274Asn and Thr217Glu Aurora A mutants were generated by PCR-site directed mutagenesis, expressed and purified as described previously. Cys290Ala Aurora A was generated using standard procedures, and purified as described.
(§3) Thermal-shift assays were performed with a StepOnePlus Real-Time PCR machine (Life Technologies) using Sypro-Orange dye (Invitrogen) and thermal ramping (0.3 °C in step intervals between 25 and 94 °C). All proteins were diluted to a final concentration of 5 μM in 50 mM Tris/HCl, pH 7.4 and 100 mM NaCl in the presence or absence of the indicated concentrations of ligand (final DMSO concentration no higher than 4 % v/v). CoA, dephosphoCoA or kinase inhibitors diluted from 10 mM DMSO stocks were assayed as described previously. Normalized data were processed using the Boltzmann equation to generate sigmoidal denaturation curves, and average Tm/ΔTm values calculated as previously described using GraphPad Prism software.

T217E Aurora A = biological target: T5, T217E Aurora A (Homo sapiens, UniProt O14965, T217E); assay: as above; assay type: binding; details: 5 mM ATP, 5 mM CoA or 0.1 mM MLN8237
T5 construct: For enzyme and DSF assays, full-length human Aurora A and Aurora B and 1–43 TPX2 were produced; made in house; host or cells: E. coli
T5 sequence (O14965 1-403 T217E): T1 sequence (O14965 1-403) with T217E
Protocol: as §2, §3

[3] = biological target: T6, WT Aurora A (T288 phosphorylated, active) (Homo sapiens, UniProt O14965); assay: as above; assay type: binding; details: 5 mM ATP, 5 mM CoA or 0.1 mM MLN8237; for CoA dependent on non-reducing conditions
T6 construct: Bacterially expressed full-length His-Aurora A was used to determine the IC50 value for CoA; made in house; host or cells: E. coli BL21 (DE3) pLysS
T6 sequence (O14965 1-403): T1 sequence (O14965 1-403)
Protocol: as §2, §3

[4] = biological target: T7, kinase-dead D274N (inactive) Aurora A (Homo sapiens, UniProt O14965, D274N); assay: as above; assay type: binding; details: 5 mM ATP or 5 mM CoA; CoA DTT-dependent
T7 construct: For enzyme and DSF assays, full-length human Aurora A and Aurora B and 1–43 TPX2 were produced; 6His (N); made in house; host or cells: E. coli
T7 sequence (O14965 whole entry D274N): as the sequence (O14965 whole entry C290A) above, with D274N, A290C counted along it
Protocol: as §2, §3

[5] = tested on: FLAG-tagged Aurora A in HEK293/Pank1β cells; assay: Aurora A CoAlation in cells treated with oxidising agents (FLAG immunoprecipitation, anti-CoA immunoblot); assay type: cell-based, human; details: 30 min; 250 μM H2O2, 500 μM diamide, 50 μM menadione, 10 μM phenylarsine oxide
[6] = tested on: FLAG-tagged Aurora A in HEK293/Pank1β cells; assay: Aurora A Thr 288 phosphorylation and dimerization in cells treated with oxidising agents (immunoblot); assay type: cell-based, human; details: 30 min treatment; for Formation of Aurora A dimers in cells: non-reducing conditions; for Aurora A phosphorylation at Thr 288 in cells: samples separated in the presence of DTT
[7] = biological target: T8, FLAG-tagged WT Aurora A (human), O14965; assay: non-reducing SDS-PAGE and immunoblot of an anti-FLAG immunoprecipitate; FLAG-Aurora A immunoprecipitated from HEK293/Pank1β cells treated 30 min with oxidising agents (250 μM H2O2, 500 μM diamide, 50 μM menadione, 10 μM phenylarsine oxide, 1 μM rotenone); SDS-PAGE under reducing and non-reducing conditions; blots with anti-FLAG and anti-pT288; dimers seen under non-reducing conditions; details: remark: other sources report otherwise
T8 chain: T1 sequence (O14965 1-403)

[8] = biological target: T9, purified Aurora A (human), O14965; assay: non-reducing SDS-PAGE; purified Aurora A briefly exposed to peroxide; reducing compared with non-reducing SDS-PAGE; dimer sensitive to DTT; details: remark: other sources report otherwise
T9 chain: T1 sequence (O14965 1-403)

CC(C)(CO)[C@@H](O)C(=O)NCCC(=O)NCCS [pantetheine]
Disruption of bipolar spindle formation and chromosome alignment (mouse oocytes): not

CCNC(=O)CCNC(=O)[C@H](O)C(C)(C)COP(=O)(O)OP(=O)(O)OC[C@H]1O[C@@H](n2cnc3c(N)ncnc32)[C@H](O)[C@@H]1OP(=O)(O)O [desulfo-CoA]
IC50 (Aurora A (active)): 160 µM

Nc1ncnc2c1ncn2[C@@H]1O[C@H](COP(=O)(O)OP(=O)(O)OP(=O)(O)O)[C@@H](O)[C@H]1O [ATP]
IC50 [1]: 0.2 µM | IC50 [2]: 3 µM | Ligand binding / thermal stabilization (C290A Aurora A): still bound | Ligand-induced thermal shift (T217E Aurora A): stabilization | Change in thermal stability (ΔTm) [3]: marked change in thermal stability | Ligand interaction by thermal shift [4]: severely blunted

COc1cc(Nc2ncc3c(n2)-c2ccc(Cl)cc2C(c2c(F)cccc2OC)=NC3)ccc1C(=O)O [MLN8237, alisertib]
Ligand-induced thermal shift (T217E Aurora A): stabilization | Change in thermal stability (ΔTm) [3]: marked change in thermal stability

CN(C)C(=O)/N=N/C(=O)N(C)C [diamide]
CoAlation of transiently expressed Aurora A in cells [5]: strongly induced | Formation of Aurora A dimers in cells [6]: clearly observed | Aurora A phosphorylation at Thr 288 in cells [6]: promoted an increase

OO [hydrogen peroxide]
Formation of Aurora A dimers in cells [6]: clearly observed | Aurora A phosphorylation at Thr 288 in cells [6]: promoted an increase

Nc1ncnc2c1ncn2[C@@H]1O[C@H](COP(=O)(O)O)[C@@H](O)[C@H]1O [AMP]
Disruption of bipolar spindle formation and chromosome alignment (mouse oocytes): not

CC1=CC(=O)c2ccccc2C1=O [menadione]
Formation of Aurora A dimers in cells [6]: clearly observed | Aurora A phosphorylation at Thr 288 in cells [6]: promoted an increase

B1: FLAG-tagged WT Aurora A, O14965 1-403 (enzyme)
chain: T1 sequence (O14965 1-403)
modifications: here or on the partner: phosphothreonine at 288 (detected with anti-pT288 antibody after oxidising agents); phosphothreonine at 288 (detected with anti-pT288 antibody after oxidising agents)
stoichiometry N [7]: 2

B2: purified Aurora A, O14965 1-403 (enzyme)
chain: T1 sequence (O14965 1-403)
stoichiometry N [8]: 2
